Biological target: Rho-associated protein kinase 2 (Homo sapiens, UniProt O75116)
Assay: In Vitro Assay
Experimental: The effectiveness of compounds of the present invention as ROCK inhibitors can be determined in a 30 μL, assay containing 20 mM HEPES, pH 7.5, 20 mM MgCl2, 0.015% Brij-35, 4 mM DTT, 5 μM ATP and 1.5 μM peptide substrate (FITC-AHA-AKRRRLSSLRA-OH). Compounds were dissolved in DMSO so that the final concentration of DMSO was <2%, and the reaction was initiated with Rho kinase variants. After incubation, the reaction was terminated by the addition of EDTA and the phosphorylated and non-phosphorylated peptides separated using a LABCHIP 3000 Reader (Caliper Life Sciences). […] Compounds were tested in dose-response format, and the inhibition of kinase activity was calculated at each concentration of compound.

Chain of Rho-associated protein kinase 2 (O75116 whole entry): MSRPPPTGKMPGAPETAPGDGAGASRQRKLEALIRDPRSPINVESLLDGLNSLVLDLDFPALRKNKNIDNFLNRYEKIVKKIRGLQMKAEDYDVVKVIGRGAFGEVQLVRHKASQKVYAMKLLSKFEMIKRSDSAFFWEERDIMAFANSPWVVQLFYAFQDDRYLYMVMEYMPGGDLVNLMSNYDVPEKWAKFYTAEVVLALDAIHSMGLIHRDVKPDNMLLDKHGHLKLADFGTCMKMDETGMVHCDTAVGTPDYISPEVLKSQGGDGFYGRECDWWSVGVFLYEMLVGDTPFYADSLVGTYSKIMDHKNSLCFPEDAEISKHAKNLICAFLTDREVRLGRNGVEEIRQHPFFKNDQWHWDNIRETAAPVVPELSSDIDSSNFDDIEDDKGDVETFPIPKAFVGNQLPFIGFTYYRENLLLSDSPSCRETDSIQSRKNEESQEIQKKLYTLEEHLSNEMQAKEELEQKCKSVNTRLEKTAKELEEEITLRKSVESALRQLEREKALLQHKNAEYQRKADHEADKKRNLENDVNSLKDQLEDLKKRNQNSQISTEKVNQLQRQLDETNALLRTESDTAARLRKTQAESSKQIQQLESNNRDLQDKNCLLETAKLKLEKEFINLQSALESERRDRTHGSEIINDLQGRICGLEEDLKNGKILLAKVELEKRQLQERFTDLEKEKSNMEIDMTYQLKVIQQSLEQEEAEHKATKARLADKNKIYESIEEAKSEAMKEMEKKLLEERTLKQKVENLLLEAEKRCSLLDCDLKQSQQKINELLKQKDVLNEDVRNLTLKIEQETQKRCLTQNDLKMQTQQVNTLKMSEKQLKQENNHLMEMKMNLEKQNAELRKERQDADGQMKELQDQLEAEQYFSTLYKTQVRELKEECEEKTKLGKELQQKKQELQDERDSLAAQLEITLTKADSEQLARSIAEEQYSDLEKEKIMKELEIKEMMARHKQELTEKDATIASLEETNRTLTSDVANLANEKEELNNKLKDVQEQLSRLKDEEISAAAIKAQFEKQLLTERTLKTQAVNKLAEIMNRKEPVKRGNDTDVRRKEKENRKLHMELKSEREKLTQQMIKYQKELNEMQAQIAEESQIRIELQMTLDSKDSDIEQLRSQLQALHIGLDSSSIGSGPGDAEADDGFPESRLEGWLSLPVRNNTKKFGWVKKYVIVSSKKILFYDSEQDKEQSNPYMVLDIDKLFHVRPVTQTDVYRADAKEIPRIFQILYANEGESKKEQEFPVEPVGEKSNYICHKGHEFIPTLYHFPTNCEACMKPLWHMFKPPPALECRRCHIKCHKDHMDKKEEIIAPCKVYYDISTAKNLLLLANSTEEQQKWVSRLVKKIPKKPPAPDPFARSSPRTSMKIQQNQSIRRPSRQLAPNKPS

`N[C@H](CCc1ccccc1)C(=O)Nc1ccc2c(c1)CCc1n[nH]cc1-2` [US10654860, Example 4] gave an IC50 of under 10 nM.

— BindingDB's records for patent US10654860 (Bristol Myers Squibb, 2020)
